Measured values published in paper PMC8371461 (Frontiers in Pharmacology, 2021).

What was measured:
PCTK2 = biological target: T1, PCTK2 (Homo sapiens, UniProt Q00537); assay: kinome scan; assay type: binding; conditions: 10 µM
T1 construct: purchased DiscoverX (KINOMEscan)

KIT(D816V) = biological target: T2, KIT(D816V) (Homo sapiens, UniProt P10721, D816V); assay: kinome scan; assay type: binding; conditions: 10 µM
T2 construct: purchased DiscoverX (KINOMEscan)

PKAC-alpha = biological target: T3, PKAC-alpha (Homo sapiens, UniProt P17612); assay: kinome scan; assay type: binding; conditions: 10 µM
T3 construct: purchased DiscoverX (KINOMEscan)

CDKL1 = biological target: T4, CDKL1 (Homo sapiens, UniProt Q00532); assay: kinome scan; assay type: binding; conditions: 10 µM
T4 construct: purchased DiscoverX (KINOMEscan)

MEK2 = biological target: T5, MEK2 (Homo sapiens, UniProt P36507); assay: kinome scan; assay type: binding; conditions: 10 µM
T5 construct: purchased DiscoverX (KINOMEscan)

PIP5K2C = biological target: T6, PIP5K2C (Homo sapiens, UniProt Q8TBX8); assay: kinome scan; assay type: binding
T6 construct: purchased DiscoverX (KINOMEscan)

WEE1 = biological target: T7, WEE1 (Homo sapiens, UniProt P30291); assay: kinome scan; assay type: binding; conditions: 10 µM
T7 construct: purchased DiscoverX (KINOMEscan)

PHKG1 = biological target: T8, PHKG1 (Homo sapiens, UniProt Q16816); assay: kinome scan; assay type: binding; conditions: 10 µM
T8 construct: purchased DiscoverX (KINOMEscan)

AMPK-alpha2 = biological target: T9, AMPK-alpha2 (Homo sapiens, UniProt P54646); assay: kinome scan; assay type: binding; conditions: 10 µM
T9 construct: purchased DiscoverX (KINOMEscan)

ERBB4 = biological target: T10, ERBB4 (Homo sapiens, UniProt Q15303); assay: kinome scan; assay type: binding; conditions: 10 µM
T10 construct: purchased DiscoverX (KINOMEscan)

CSNK1G3 = biological target: T11, CSNK1G3 (Homo sapiens, UniProt Q9Y6M4); assay: kinome scan; assay type: binding
T11 construct: purchased DiscoverX (KINOMEscan)

CDK4-cyclinD1 = biological target: T12, CDK4-cyclinD1 (Homo sapiens, UniProt P11802); assay: kinome scan; assay type: binding; conditions: 10 µM
T12 construct: purchased DiscoverX (KINOMEscan)

MAP3K4 = biological target: T13, MAP3K4 (Homo sapiens, UniProt Q9Y6R4); assay: kinome scan; assay type: binding; conditions: 10 µM
T13 construct: purchased DiscoverX (KINOMEscan)

EPHB3 = biological target: T14, EPHB3 (Homo sapiens, UniProt P54753); assay: kinome scan; assay type: binding; conditions: 10 µM
T14 construct: purchased DiscoverX (KINOMEscan)

KIT(V559DV654A) = biological target: T15, KIT(V559DV654A) (Homo sapiens, UniProt P10721, V559D/V654A); assay: kinome scan; assay type: binding; conditions: 10 µM
T15 construct: purchased DiscoverX (KINOMEscan)

ADCK3 = biological target: T16, ADCK3 (Homo sapiens, UniProt Q8NI60); assay: kinome scan; assay type: binding; conditions: 10 µM
T16 construct: purchased DiscoverX (KINOMEscan)

ABL1-nonphosphorylated = biological target: T17, ABL1-nonphosphorylated (Homo sapiens, UniProt P00519); assay: kinome scan; assay type: binding; conditions: 10 µM
T17 construct: purchased DiscoverX (KINOMEscan)

KIT(V559D) = biological target: T18, KIT(V559D) (Homo sapiens, UniProt P10721, V559D); assay: kinome scan; assay type: binding
T18 construct: purchased DiscoverX (KINOMEscan)

HIPK2 = biological target: T19, HIPK2 (Homo sapiens, UniProt Q9H2X6); assay: kinome scan; assay type: binding; conditions: 10 µM
T19 construct: purchased DiscoverX (KINOMEscan)

[1] = test system: CGR8EF1αS,RLuc-Tα1,FLuc cells; assay: cell viability by propidium iodide; assay type: cell-based, mouse; conditions: up to 10 µM, 72 h
Method: The CGR8 mouse PSC were cultured as described ([Suter et al., 2009]). For neural induction, CGR8 cells were plated in 96-well plates at a density of 10,000 cells/cm^2 on gelatine-coated cell culture plates, in differentiation medium [BHK-21 medium supplemented with 20% foetal calf serum (Thermofisher), L-glutamine 2 mM (Thermofisher), non-essential amino acids (1X, Thermofisher), sodium pyruvate 1 mM (Thermofisher), penicillin/streptomycin 50 U/ml (Thermofisher)]. CGR8EF1αS,RLuc-Tα1,FLuc cells were described in ([Suter et al., 2009]) and were cultured as described above. Luminescence assays were directly performed in 96-well plates with the Dual Luciferase Reporter Assay System (Promega) according to the manufacturer’s instructions. Luminescence was measured with the SpectraMax L Microplate luminometer (Molecular Devices). Cell viability in the wells was measured by the addition of propidium iodide 1 µg/ml in 100 µL of PBS and fluorescence was assessed in each well using a FluoStar Optima reader (Pharmaceutical Technology Group at the University of Geneva).
After two days, cells were lysed for the quantification of intracellular ATP. […] After three days, cells were lysed for the quantification of F-luminescence (FLuc) and R-luminescence (RLuc) in the presence of the respective substrates.

PSC = assay: LC3B positive autophagosomes, immunofluorescent staining; assay type: cell-based, mouse; conditions: 10 µM, three days
Method: Cells were fixed with PBS containing 0.5% of para-formaldehyde for 15 min at room temperature. After three washing steps in PBS, cells were permeabilized with PBS containing 0.3% of Triton X-100 (Sigma) for 1 h at room temperature. After washing with PBS three times, cells were incubated overnight with the anti-LC3B antibody in PBS with 1% bovine serum albumin (Sigma) at 4°C. After three washing steps in PBS, cells were incubated with the fluorescent secondary antibody for 90 min at 4°C in PBS with 1% bovine serum albumin. They were then incubated with […] DAPI (Thermofisher) in PBS for 15 min. After washing with PBS, cells were rinsed once in water prior to mounting in the FluorSave reagent (Millipore).
Depending of these transitory environmental conditions, autophagy can either promote survival or apoptosis ([Degtyarev et al., 2008]). PIK/AKT pathway inhibition has been reported to increase cell autophagy ([Palmieri et al., 2017]). More specifically, PIP4K2C has been described as a down-regulator of autophagy ([Sharma et al., 2019]).

PDGFRA = biological target: T20, PDGFRA (Homo sapiens, UniProt P16234); assay: kinome scan; assay type: binding; conditions: 10 µM
T20 construct: purchased DiscoverX (KINOMEscan)

MST3 = biological target: T21, MST3 (Homo sapiens, UniProt Q9Y6E0); assay: kinome scan; assay type: binding; conditions: 10 µM
T21 construct: purchased DiscoverX (KINOMEscan)

GRK1 = biological target: T22, GRK1 (Homo sapiens, UniProt Q15835); assay: kinome scan; assay type: binding; conditions: 10 µM
T22 construct: purchased DiscoverX (KINOMEscan)

TRKC = biological target: T23, TRKC (Homo sapiens, UniProt Q16288); assay: kinome scan; assay type: binding; conditions: 10 µM
T23 construct: purchased DiscoverX (KINOMEscan)

PKN2 = biological target: T24, PKN2 (Homo sapiens, UniProt Q16513); assay: kinome scan; assay type: binding; conditions: 10 µM
T24 construct: purchased DiscoverX (KINOMEscan)

EPHA5 = biological target: T25, EPHA5 (Homo sapiens, UniProt P54756); assay: kinome scan; assay type: binding; conditions: 10 µM
T25 construct: purchased DiscoverX (KINOMEscan)

BRAF(V600E) = biological target: T26, BRAF(V600E) (Homo sapiens, UniProt P15056, V600E); assay: kinome scan; assay type: binding; conditions: 10 µM
T26 construct: purchased DiscoverX (KINOMEscan)

ERK2 = biological target: T27, ERK2 (Homo sapiens, UniProt P28482); assay: kinome scan; assay type: binding; conditions: 10 µM
T27 construct: purchased DiscoverX (KINOMEscan)

T6 sequence (Q8TBX8 whole entry): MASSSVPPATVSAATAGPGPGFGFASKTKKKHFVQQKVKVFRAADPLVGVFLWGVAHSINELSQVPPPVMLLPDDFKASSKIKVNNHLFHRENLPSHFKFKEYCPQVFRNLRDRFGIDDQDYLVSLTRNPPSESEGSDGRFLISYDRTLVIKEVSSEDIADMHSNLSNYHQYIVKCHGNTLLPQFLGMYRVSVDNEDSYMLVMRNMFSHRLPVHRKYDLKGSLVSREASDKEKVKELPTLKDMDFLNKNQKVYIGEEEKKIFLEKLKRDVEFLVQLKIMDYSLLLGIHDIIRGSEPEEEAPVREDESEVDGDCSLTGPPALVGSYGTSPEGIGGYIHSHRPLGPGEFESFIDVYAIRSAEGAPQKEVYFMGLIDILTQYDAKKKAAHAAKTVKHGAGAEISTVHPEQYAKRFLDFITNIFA
T11 sequence (Q9Y6M4 whole entry): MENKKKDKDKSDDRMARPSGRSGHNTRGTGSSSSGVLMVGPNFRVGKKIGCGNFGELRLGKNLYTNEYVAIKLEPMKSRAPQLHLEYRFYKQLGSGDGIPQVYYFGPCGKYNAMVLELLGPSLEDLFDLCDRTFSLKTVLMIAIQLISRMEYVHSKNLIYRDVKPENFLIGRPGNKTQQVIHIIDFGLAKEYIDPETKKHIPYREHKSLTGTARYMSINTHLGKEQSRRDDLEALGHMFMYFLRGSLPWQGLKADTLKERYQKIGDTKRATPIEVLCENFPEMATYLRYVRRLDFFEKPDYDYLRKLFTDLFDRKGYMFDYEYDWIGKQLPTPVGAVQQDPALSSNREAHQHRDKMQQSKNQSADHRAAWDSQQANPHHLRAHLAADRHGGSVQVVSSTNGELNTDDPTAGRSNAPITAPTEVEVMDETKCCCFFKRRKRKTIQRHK
T18 sequence (P10721 26-976 V559D): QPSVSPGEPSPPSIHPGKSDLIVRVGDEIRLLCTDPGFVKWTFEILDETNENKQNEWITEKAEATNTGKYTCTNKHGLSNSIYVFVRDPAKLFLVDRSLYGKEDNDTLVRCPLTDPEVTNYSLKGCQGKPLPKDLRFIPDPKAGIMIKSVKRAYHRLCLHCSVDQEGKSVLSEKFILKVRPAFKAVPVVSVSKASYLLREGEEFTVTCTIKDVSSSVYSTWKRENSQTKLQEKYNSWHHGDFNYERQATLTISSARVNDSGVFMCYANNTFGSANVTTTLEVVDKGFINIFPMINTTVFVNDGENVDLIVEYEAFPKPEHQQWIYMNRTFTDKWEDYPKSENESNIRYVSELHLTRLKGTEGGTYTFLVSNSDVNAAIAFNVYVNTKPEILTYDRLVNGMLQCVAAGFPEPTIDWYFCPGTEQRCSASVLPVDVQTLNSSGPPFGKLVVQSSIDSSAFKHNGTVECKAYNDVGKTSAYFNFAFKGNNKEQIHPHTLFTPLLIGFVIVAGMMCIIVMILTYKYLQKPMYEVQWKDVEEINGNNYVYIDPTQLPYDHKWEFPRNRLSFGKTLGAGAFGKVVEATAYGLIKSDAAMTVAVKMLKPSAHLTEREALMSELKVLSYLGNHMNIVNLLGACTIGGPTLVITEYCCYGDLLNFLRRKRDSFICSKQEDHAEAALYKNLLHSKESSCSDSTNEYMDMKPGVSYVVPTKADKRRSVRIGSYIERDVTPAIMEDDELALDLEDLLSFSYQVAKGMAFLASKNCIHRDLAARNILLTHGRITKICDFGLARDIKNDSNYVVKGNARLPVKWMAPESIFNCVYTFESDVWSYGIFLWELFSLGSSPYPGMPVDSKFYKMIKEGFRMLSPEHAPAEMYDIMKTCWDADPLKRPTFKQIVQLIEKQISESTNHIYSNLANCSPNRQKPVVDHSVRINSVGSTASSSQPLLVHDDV
T1 sequence (Q00537 whole entry): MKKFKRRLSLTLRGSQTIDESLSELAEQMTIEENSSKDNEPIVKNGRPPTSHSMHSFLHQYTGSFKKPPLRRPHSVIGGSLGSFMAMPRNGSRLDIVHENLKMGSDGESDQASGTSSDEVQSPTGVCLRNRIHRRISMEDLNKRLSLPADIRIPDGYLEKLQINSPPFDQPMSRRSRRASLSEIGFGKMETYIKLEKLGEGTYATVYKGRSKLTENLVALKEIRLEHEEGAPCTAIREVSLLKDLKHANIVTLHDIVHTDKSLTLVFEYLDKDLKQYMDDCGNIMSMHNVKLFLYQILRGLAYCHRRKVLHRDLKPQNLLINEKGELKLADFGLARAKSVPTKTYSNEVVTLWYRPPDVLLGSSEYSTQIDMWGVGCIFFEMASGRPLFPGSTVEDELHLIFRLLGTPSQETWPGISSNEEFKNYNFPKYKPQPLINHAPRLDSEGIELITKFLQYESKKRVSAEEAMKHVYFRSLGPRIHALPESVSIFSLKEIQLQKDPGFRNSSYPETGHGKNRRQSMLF
T5 sequence (P36507 whole entry): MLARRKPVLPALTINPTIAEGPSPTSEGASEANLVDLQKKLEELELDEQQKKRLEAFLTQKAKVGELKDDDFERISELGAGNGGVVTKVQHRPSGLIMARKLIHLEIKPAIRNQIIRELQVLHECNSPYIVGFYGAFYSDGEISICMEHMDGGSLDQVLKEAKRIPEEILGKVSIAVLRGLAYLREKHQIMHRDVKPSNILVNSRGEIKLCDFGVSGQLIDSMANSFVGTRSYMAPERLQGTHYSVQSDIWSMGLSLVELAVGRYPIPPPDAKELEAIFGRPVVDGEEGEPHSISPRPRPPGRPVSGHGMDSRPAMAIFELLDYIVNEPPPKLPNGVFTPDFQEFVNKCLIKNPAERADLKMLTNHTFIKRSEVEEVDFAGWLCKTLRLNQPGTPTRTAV
T2 sequence (P10721 26-976 D816V): as the sequence (P10721 26-976 V559D) above, with D534V, D791V counted along it
T20 sequence (P16234 24-1089): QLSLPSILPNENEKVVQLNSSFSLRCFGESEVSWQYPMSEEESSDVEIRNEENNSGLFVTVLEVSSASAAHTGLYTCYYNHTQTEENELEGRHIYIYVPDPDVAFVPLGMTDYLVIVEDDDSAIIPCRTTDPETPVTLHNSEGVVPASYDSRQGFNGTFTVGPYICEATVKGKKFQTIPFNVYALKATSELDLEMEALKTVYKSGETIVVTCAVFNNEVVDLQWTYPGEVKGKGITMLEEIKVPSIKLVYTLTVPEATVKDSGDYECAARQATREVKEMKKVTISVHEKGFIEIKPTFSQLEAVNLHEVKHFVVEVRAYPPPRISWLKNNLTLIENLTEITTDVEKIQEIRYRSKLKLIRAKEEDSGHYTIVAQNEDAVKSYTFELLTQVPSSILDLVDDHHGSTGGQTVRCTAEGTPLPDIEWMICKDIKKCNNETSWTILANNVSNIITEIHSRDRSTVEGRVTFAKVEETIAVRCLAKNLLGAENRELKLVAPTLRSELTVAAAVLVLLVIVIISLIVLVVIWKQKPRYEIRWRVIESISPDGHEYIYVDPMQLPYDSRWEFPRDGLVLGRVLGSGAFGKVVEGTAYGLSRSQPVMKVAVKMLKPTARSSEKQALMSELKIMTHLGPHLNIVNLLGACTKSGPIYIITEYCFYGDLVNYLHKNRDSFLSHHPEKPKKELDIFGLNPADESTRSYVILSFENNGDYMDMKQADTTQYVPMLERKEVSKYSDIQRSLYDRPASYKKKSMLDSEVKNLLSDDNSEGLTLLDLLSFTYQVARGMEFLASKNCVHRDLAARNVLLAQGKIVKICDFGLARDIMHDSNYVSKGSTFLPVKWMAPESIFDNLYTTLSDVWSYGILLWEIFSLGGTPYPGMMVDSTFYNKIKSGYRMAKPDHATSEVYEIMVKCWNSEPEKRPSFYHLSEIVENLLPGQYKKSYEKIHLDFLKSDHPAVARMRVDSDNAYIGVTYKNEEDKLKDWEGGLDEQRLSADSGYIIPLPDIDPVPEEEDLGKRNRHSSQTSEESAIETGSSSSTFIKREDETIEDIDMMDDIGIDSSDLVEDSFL
T24 sequence (Q16513 whole entry): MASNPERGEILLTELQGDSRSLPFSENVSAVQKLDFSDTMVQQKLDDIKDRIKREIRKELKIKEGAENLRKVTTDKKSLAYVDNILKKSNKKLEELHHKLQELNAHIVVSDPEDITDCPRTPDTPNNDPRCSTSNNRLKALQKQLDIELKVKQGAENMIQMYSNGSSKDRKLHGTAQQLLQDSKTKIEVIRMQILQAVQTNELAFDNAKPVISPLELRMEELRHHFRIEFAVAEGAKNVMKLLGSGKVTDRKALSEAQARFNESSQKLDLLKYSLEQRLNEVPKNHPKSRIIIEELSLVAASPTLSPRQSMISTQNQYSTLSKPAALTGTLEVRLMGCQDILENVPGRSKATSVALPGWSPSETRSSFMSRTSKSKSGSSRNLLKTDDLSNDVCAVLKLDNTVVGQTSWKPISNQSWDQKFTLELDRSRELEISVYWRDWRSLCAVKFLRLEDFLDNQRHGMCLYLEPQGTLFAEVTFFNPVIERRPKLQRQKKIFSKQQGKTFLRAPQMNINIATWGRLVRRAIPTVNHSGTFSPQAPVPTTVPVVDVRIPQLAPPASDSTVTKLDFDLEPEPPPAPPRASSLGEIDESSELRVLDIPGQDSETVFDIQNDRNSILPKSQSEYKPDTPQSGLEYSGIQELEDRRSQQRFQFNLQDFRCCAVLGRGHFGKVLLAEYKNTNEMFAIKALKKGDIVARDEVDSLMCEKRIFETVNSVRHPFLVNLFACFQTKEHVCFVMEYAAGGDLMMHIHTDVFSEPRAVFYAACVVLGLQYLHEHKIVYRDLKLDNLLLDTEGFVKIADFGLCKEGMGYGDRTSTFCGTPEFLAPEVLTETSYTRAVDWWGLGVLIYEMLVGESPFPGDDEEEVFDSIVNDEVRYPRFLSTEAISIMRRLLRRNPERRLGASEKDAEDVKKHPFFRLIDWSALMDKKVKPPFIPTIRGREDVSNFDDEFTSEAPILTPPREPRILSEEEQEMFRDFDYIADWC

Nc1ccc(N=Nc2ccccc2)c(N)n1 [phenazopyridine, 2,6-diamino-3-(phenylazo)pyridine]
kinase inhibition (PCTK2): 98
kinase inhibition (KIT(D816V)): 100
kinase inhibition (PKAC-alpha): 100
kinase inhibition (CDKL1): 100
kinase inhibition (MEK2): 83
remaining binding (% of control) (PIP5K2C; 10 µM): 2.3
remaining binding at 10 µM (PIP5K2C; read-out: % Of control): 2.3%
kinase inhibition (WEE1): 100
kinase inhibition (PHKG1): 98
kinase inhibition (AMPK-alpha2): 84
kinase inhibition (ERBB4): 78
kinase inhibition (CSNK1G3; CSNK1G3, 10 µM): 100
remaining binding at 10 µM (CSNK1G3; Casein kinase 1 isoform γ 3 (CK1), read-out: Kinome scan (% of control at 10 µM)): 44%
kinase inhibition (CDK4-cyclinD1): 100
kinase inhibition (MAP3K4): 100
kinase inhibition (EPHB3): 85
kinase inhibition (KIT(V559DV654A)): 87
kinase inhibition (ADCK3): 91
kinase inhibition (ABL1-nonphosphorylated): 86
remaining activity (KIT(V559D); KIT(V559D), 10 µM): 32
remaining binding at 10 µM (KIT(V559D); c-KIT Val559Asp, best mutant, read-out: Kinome scan (% of control at 10 µM)): 32%
kinase inhibition (HIPK2): 89
toxicity (signal in the presence of propidium iodide) [1]: without any toxicity
number of LC3B-positive autophagosomes (PSC): increased
kinase inhibition (PDGFRA): 38
kinase inhibition (MST3): 98
remaining binding (% of control) (GRK1): 100
kinase inhibition (TRKC): 90
kinase inhibition (PKN2): 100
kinase inhibition (EPHA5): 97
kinase inhibition (BRAF(V600E)): 92
kinase inhibition (ERK2): 92
